Data on 15 molecules can be found in patent US7947668B2, “Aminoalkyl sterol compounds having an anti-tumoral and neuroprotective activity” (Institut National de la Sante et de la Recherche Medicale, priority 2002, dated 2011).

B1: IL-4: interleukin-4, cytokine (protein, UniProt P05112 25-153, looked up)
Interleukin-4: HKCDITLQEIIKTLNSLTEQKTLCTELTVTDIFAASKNTTEKETFCRAATVLRQFYSHHEKDTRCLGATAQQFHRHKQLIRFLKRLDRNLWGLAGLNSCPVKEANQSTLENFLERLKTIMREKYSKCSS

One assay deals with C57BL/6 mouse spleen monocytes. The assay can be described thus: Dendritogenesis on C57BL/6 mouse spleen monocytes. In kind it is cell-based. As to conditions: dose of 1 nM, 36 hours after the start of action. How it is done: 1) On C57BL/6 Mouse Spleen Monocytes
5-week-old mice are sacrificed by cervical dislocation. They are then dissected. The spleens are removed under sterile conditions and then placed in a cold solution (4° C.) containing serum-free culture medium supplemented with antibiotics (streptomycin and penicillin). The spleens are ground in a sterile fume cupboard and then filtered through a 100 μm filter. The eluate is recovered and then centrifuged at 1000 rpm for 5 minutes at 4° C. The cell pellet is resuspended in phosphate-buffered saline (PBS) solution containing […], the purpose of which is to lyze the red blood cells. The suspension is centrifuged at 1000 rpm and the cells are then resuspended in PBS. The washing operation is performed twice. The final resuspension is performed in whole culture medium, and the cells are counted and distributed into six-well dishes at a density of 40 000 cells/ml. Four hours later, the adhering cells are washed vigorously with PBS in order to remove the cells that might remain attached to the adhering cells or to the culture dish.
The conversion was obtained with a dose of 1 nM, the photograph having been taken 36 hours after the start of action of the product. The test product is that of example 9. The appearance of cellular extensions is observed, which is one of the main characteristics of activated dendritic cells.
With `NCCc1c[nH]cn1` [amine, 2-(1H-imidazol-4-yl)ethylamine, reference compound], the “morphological changes on the mouse monocytes, conversion into dendritic cells” value was “ineffective”.
The same measure, in the same setting: the value for `CC(C)CCC[C@@H](C)[C@H]1CC[C@H]2[C@@H]3C[C@@H]4O[C@@]45C[C@@H](O)CC[C@]5(C)[C@H]3CC[C@]12C` [epoxy-cholesterol derivative, 5,6-α-epoxycholestan-3β-ol, reference compound] was “ineffective”; that for `CC(C)CCC[C@@H](C)[C@H]1CC[C@H]2[C@@H]3CC=C4C[C@@H](O)CC[C@]4(C)[C@H]3CC[C@]12C` [cholesterol, reference compound] was “ineffective”.
The same measure, in the same setting: the value for “GM-CSF: cytokine used with IL-4 to differentiate monocytes into dendritic cells” was “ineffective”; that for B1 was “ineffective”.

Another assay has as its system PC12 cells. The experiment in a line: Neuritogenesis on PC12 cells. In kind it is cell-based. As to conditions: dose of 10 nM, action time 36 hours. How it is done:
The PC12 cells were cultured at an initial density of 1.5×10^5 cells/ml in RPMI 1640 medium supplemented with 10% fetal calf serum and 5% horse serum. The base of the culture dishes is treated with a 0.1 wt % polylysine or collagen solution in order to cause adhesion of the cells. The supernatant cells are removed after 12 hours and then treated with or without nerve growth factor (NGF) at 10 ng/ml, with or without the compound of example 6 or of example 7. The cells are observed by phase-contrast microscopy.
The PC12 cells treated by means of the compound of example 6 were treated at a dose of 10 nM, the action time of the compound being 36 hours.
With `CC(C)CCC[C@@H](C)[C@H]1CC[C@H]2C3=C[C@@H](NCCCCNCCCN)[C@@]4(O)C[C@@H](O)CC[C@]4(C)[C@H]3CC[C@]12C` [Example 6, cholest-7-ene-3β,5α-diol-6β-N-[1-N-1-(3-aminopropyl)butane-1,4-diamine]], the “change in morphology of PC12 cells toward dendrites” value is “formation of dendrites”.

The subject of another assay is P19 cells. The assay can be described thus: Neuritogenesis on mouse P19 cells. In kind it is cell-based. As to conditions: dose of 10 nM; after 12 hours of treatment. On the procedure: The P19 cells are derived from a mouse embryonic carcinoma. They are pluripotent cells, which can change into neurones or into glial cells by treatment with retinoic acid (J. Cell. Biol. 1982 August, 94 (2): pp. 253-262) and can differentiate into muscle cells in the presence of dimethyl sulfoxide (Nature 1982-9 September, 299(58 79): pp. 165-167).
The P19 cells are cultured in the presence of an “RPMI 1640” culture medium sold by the company “Gibco BRL”, this medium being supplemented with 2 mM of glutamine and 4% by weight of fetal calf serum. They are inoculated at low density (10 000 cells per 60-mm well). The P19 cells are treated with the compound of example 6; they are then observed by phase-contrast microscopy. […]
Regarding `CC(C)CCC[C@@H](C)[C@H]1CC[C@H]2C3=C[C@@H](NCCCCNCCCN)[C@@]4(O)C[C@@H](O)CC[C@]4(C)[C@H]3CC[C@]12C` [Example 6, cholest-7-ene-3β,5α-diol-6β-N-[1-N-1-(3-aminopropyl)butane-1,4-diamine]], the “change in morphology of P19 cells toward dendrites” value is listed as “formation of dendrites”.
With `CC[C@H](CC[C@@H](C)[C@H]1CC[C@H]2[C@@H]3C[C@@H](NCCCNCCCCNCCCN)[C@@]4(O)C[C@@H](O)CC[C@]4(C)[C@H]3CC[C@]12C)C(C)C` [Example 42, sitostane-3β,5α-diol-6β-N-[N,N′-bis(aminopropyl)butane-1,4-diamine]], the “change in morphology of P19 cells toward dendrites” value is “same observations”.
The same measure, in the same setting: then `CC(C)[C@H](C)CC[C@@H](C)[C@H]1CC[C@H]2[C@@H]3C[C@@H](NCCCNCCCCNCCCN)[C@@]4(O)C[C@@H](O)CC[C@]4(C)[C@H]3CC[C@]12C` [Example 43, campestane-3β,5α-diol-6β-N-[N,N′-bis(aminopropyl)butane-1,4-diamine]], with “same observations”; and `CC[C@H](CC[C@@H](C)[C@H]1CC[C@H]2[C@@H]3C[C@@H](NCCCCNCCCN)[C@@]4(O)C[C@@H](O)CC[C@]4(C)[C@H]3CC[C@]12C)C(C)C` [Example 44, sitostane-3β,5α-diol-6β-N-[1-N1-(3-aminopropyl)butane-1,4-diamine]], with “same observations”.
On the same count and under the same terms, the value for `CC(C)CCC[C@@H](C)[C@H]1CC[C@H]2[C@@H]3C[C@@H](NCCCCNCCCN)[C@@]4(O)C[C@@H](O)CC[C@]4(C)[C@H]3CC[C@]12C` [Example 4, cholestane-3β,5α-diol-6β-N-[1-N1-(3-aminopropyl)butane-1,4-diamine]] was “same observations”; that for `CC(C)CCC[C@@H](C)[C@H]1CC[C@H]2[C@@H]3C[C@@H](NCCCNCCCCNCCCN)[C@@]4(O)C[C@@H](O)CC[C@]4(C)[C@H]3CC[C@]12C` [Example 5, cholestane-3β,5α-diol-6β-N-[N,N′-bis(3-aminopropyl)butane-1,4-diamine]] was “same observations”.
The same measure, in the same setting: the value for `CC(C)[C@H](C)CC[C@@H](C)[C@H]1CC[C@H]2[C@@H]3C[C@@H](NCCCCNCCCN)[C@@]4(O)C[C@@H](O)CC[C@]4(C)[C@H]3CC[C@]12C` [Example 45, campestane-3β,5α-diol-6β-N-[1-N-1-(3-aminopropyl)butane-1,4-diamine]] was “same observations”; that for `CC(C)CCC[C@@H](C)[C@H]1CC[C@H]2C3=C[C@@H](NCCCNCCCCNCCCN)[C@@]4(O)C[C@@H](O)CC[C@]4(C)[C@H]3CC[C@]12C` [Example 7, cholest-7-ene-3β,5α-diol-6β-N-[N,N′-bis(3-aminopropyl)butane-1,4-diamine]] was “same observations”.

Another assay deals with U-937 cells. The experiment in a line: Production of IL-12p70 and IL-10 by the dendritic cells (ELISA). In kind it is cell-based, human. The conditions noted are these: treatments extending over a period of two weeks. How it is done: The culture supernatants are frozen at a temperature of −80° C. until the time of testing for the presence of cytokines. The presence of IL-12p70 and IL-10 is measured using ELISA kits obtained from “Endogen” (Woburn, Mass., USA).
This phenomenon continues for the two weeks of treatment.
A general note: ELISA stands for enzyme-linked immunosorbent assay.
Take “sitostane-3β,5α-diol-6β-N-{[2-(1H-imidazol-4-yl)ethyl]ethylamine} [Example 46]”: the “transcription/production of IL-10” value is on record as “same observations”.
Still for that read-out and setting: then “campestane-3β,5α-diol-6β-N-{[2-(1H-imidazol-4-yl)ethyl]ethylamine} [Example 47]”, with “same observations”.
